# Literature values as cited in patent publication US20210322405A1, “COMPOSITIONS AND METHODS FOR TREATING CANCER” (Washington University, priority 2020, published 2021).
# What was measured:
# GBM patients = details: clinical trial; Butowski et al., 2016
# G6PD = details: dose-dependent manner; Bernstock et al., 2017
# [1] = test system: ALK-inhibitor resistant ALK-driven patient-derived cell lines; details: SHP099 in combination with the ALK inhibitor ceritinib; Dardaei et al., 2018
structure (smiles),measurement,setting,value
FC(F)(F)c1ccc(CNc2ccc(Cc3c[nH]c4ncc(Cl)cc34)cn2)cn1 [PLX3397],clinical benefit for GBM patients,GBM patients,did not show clear benefit
CC[C@@]1(O)C(=O)OCc2c1cc1n(c2=O)Cc2cc3c(CN(C)C)c(O)ccc3nc2-1 [topotecan],activity of G6PD,G6PD,decreases
CC1(N)CCN(c2cnc(-c3cccc(Cl)c3Cl)c(N)n2)CC1 [SHP099],Shp2-activation-mediated resistance to ALK inhibitor,[1],overcome
